Reference: PMC11420065 (Molecular Psychiatry, 2024)

Legend:
human 5-HT2AR [1] = biological target: T1, human 5-HT2AR (Homo sapiens, UniProt P28223); assay: EMTA ebBRET biosensor, agonist mode, β-arrestin recruitment; details: baseline vs maximal response, words
Method: (§1) For recruitment of the β-arrestins, cells were transfected with the receptor, β-arrestin1-RlucII or β-arrestin2-RlucII, GRK2 and rGFP-CAAX.
(§2) For in vitro experiments, curves fitting was conducted using GraphPad Prism 9 (version 9.0.0). Concentration response curves were obtained using a three-parameter logistic nonlinear regression model and the results are expressed as mean ± SEM of at least three independent experiments. […] Ligand-promoted BRET (ΔBRET) was determined by subtracting the BRET ratio of the vehicle condition from the BRET ratio of the ligand-treated conditions.

human 5-HT2AR [2] = biological target: T1, human 5-HT2AR; assay: EMTA ebBRET biosensor, agonist mode, Gαi/o/z family (Rap1GAP-RlucII/rGFP-CAAX); details: for Emax (%) ± SEM: normalized as % response of 5-HT, NA: no activity
Method: as §1, §2

[3] = system: D-myo-inositol 1 monophosphate (IP1); assay: IP1 levels in frontal cortex of treated mice (IP-One HTRF); details: 1 h
Method: C57BL/6 wild-type males, sourced from JAX farms, 11 weeks of age at the time of experiment, were housed in groups of up to five littermates with food and water ad libitum in a vivarium with a 12 h light/dark cycle at 23 °C. Animals were allowed to get accustomed to the vivarium at least 1 week prior to the experiment. […] All efforts were made to minimize animal suffering and the number of animals used.
Briefly, frontal cortices were harvested and homogenized in a 10 µL per 1 mg of tissue solution consisting of 10% IP-One Gq Kit Lysis and Detection Buffer in Stimulation Buffer. The clarified homogenates (17,000 × g for 15 min) were plated in duplicate by sequential addition of 2 µL to a 18 µL mix of detection reagents in Lysis and Detection Buffer.
The mice used in the studies came from the same colony and were split randomly between the experimental groups. The investigators were blinded to group allocation during compounds administration to mice. Data are presented as mean ± SEM of 5 mice for each treated group.
Data are normalized in fold of IP1 production in vehicle-treated mice (n = 5 animals per treatment condition; one-way ANOVA followed by Dunnett’s post hoc: compared to vehicle at 1h: *p < 0.1 and **p < 0.01 compared to vehicle).

human 5-HT2AR [4] = biological target: T1, human 5-HT2AR
Method: as §1, §2

human 5-HT2AR [5] = biological target: T1, human 5-HT2AR; assay: EMTA ebBRET biosensor, agonist mode, Gαq family (p63-RlucII/rGFP-CAAX); details: normalized as % response of 5-HT, NA: no activity
Method: as §1, §2

T1 sequence (P28223 whole entry): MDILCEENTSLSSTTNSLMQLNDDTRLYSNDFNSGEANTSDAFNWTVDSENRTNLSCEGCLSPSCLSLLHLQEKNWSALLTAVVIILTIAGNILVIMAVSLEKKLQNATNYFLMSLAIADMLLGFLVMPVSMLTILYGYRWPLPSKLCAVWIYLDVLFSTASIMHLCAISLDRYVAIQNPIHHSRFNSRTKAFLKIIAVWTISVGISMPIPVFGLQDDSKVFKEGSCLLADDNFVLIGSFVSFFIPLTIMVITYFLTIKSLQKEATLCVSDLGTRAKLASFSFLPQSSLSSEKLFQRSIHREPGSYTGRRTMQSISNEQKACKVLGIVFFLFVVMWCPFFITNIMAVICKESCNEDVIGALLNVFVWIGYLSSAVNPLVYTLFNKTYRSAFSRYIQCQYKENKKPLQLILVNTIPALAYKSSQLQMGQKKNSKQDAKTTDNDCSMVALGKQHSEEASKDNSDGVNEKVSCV

Compound	recruitment of β-arrestin1 (human 5-HT2AR [1])	activation at Gαi1 and Gαz (human 5-HT2AR [2])	increase in IP1 levels compared to the vehicle condition ([3]; 2 mg/Kg i.p.) [%]	reduction in IP1 ([3]; 3 mg/Kg i.p., vs vehicle) [%]	% inhibition ± SEM (human 5-HT2AR [4]) [%]	Emax (%) ± SEM (human 5-HT2AR [2]; Gαi1) [%]	Emax (%) ± SEM (human 5-HT2AR [2]; Gαi2) [%]	Emax (%) ± SEM (human 5-HT2AR [2]; Gαi3) [%]	Emax (%) ± SEM (human 5-HT2AR [2]; GαoA) [%]	Emax (%) ± SEM (human 5-HT2AR [2]; GαoB) [%]	Emax (%) ± SEM (human 5-HT2AR [2]; Gαz) [%]	activation at the Gαi/o/z family (human 5-HT2AR [2]; agonist mode, baseline vs maximal response, words)	Emax (%) ± SEM (human 5-HT2AR [5]; Gα11) [%]	Emax (%) ± SEM (human 5-HT2AR [5]; Gα14) [%]	Emax (%) ± SEM (human 5-HT2AR [5]; Gα15) [%]	Emax (%) ± SEM (human 5-HT2AR [5]; Gαq) [%]
O=C1CCc2ccc(OCCCCN3CCN(c4cccc(Cl)c4Cl)CC3)cc2N1 [Aripiprazole, aripiprazole]	very weak yet statistically significant recruitment	very weak yet statistically significant activation	10.5 ± 1.6	–	–	–	–	–	–	–	–	–	–	–	–	–
Cc1nc2n(c(=O)c1CCN1CCC(c3noc4cc(F)ccc34)CC1)CCCC2 [Risperidone, risperidone]	–	–	–	9.2 ± 1.2	–	–	–	–	–	–	–	–	–	–	–	–
CN(C)C(=O)N[C@H]1CC[C@H](CCN2CCN(c3cccc(Cl)c3Cl)CC2)CC1 [Cariprazine, cariprazine]	did not	–	–	–	> 50	12.72 ± 3.42	11.72 ± 2.50	16.05 ± 2.57	11.59 ± 2.44	4.32 ± 2.16	9.02 ± 0.88	did not show statistically significant activation	70.72 ± 4.97	68.10 ± 3.05	13.93 ± 0.53	67.99 ± 4.29
